Assay results taken from PMC12195967, “Cobalt(II) Complexes of 4′–Nitro–Fenamic Acid: Characterization and Biological Evaluation” (Molecules, 2025).
Like-named read-outs stand apart in the source and are kept apart here.

Columns and labels:
[1] = system: X. campestris, E. coli, B. subtilis and S. aureus; assay: Antibacterial activity, MIC summarised over the bacteria tested; format: cell-based; conditions: read-out: MIC values against the bacteria tested
Protocol: buffer (50 mM, pH 7.4). The absorbance was measured at 230 nm after 10 min. The antioxidant activity (reduction of H2O2) of the compounds was expressed as the percentage decrease of the initial H2O2 solution (H2O2%). L−ascorbic acid (or vitamin C) was used as a […]
S2 Antibacterial Activity studies
The antibacterial activity of the compounds was evaluated by determining their respective MIC values towards two Gram–(–) (Escherichia coli XL1 (E. coli) and Xanthomonas campestris ATCC 1395 (X. campestris)) and two Gram–(+) (Staphylococcus aureus ATCC 29213 (S. aureus) and Bacillus subtilis ATCC 6633 (B. subtilis)) bacterial species. Cultures of these microbial strains were grown on a rich selective agar medium and stored at 4°C. The selective media used were Nutrient Agar or Broth for B. subtilis and S. aureus, Yeast Mold Agar or Broth for X. campestris and Luria Agar or Broth for E. coli. Cells picked from the surface of the stored cultures were used to initiate liquid pre–cultures of the same selective medium at an initial turbidity of roughly 1 McFarland unit.
Pre–cultures were incubated for 24 h in a rotary shaking incubator and subsequently […]
progressive double dilution.

[2] = system: supercoiled circular pBR322 plasmid DNA; assay: Cleavage and photocleavage of plasmid DNA (gel electrophoresis); format: biochemical; conditions: compound 500 μM
Protocol: The cleavage of pBR322 plasmid DNA was evaluated both in the presence and absence of irradiation in order to further explore the interaction of the synthesized compounds with DNA and their possible biological efficacy. […] Following incubation of the samples at 37 °C, the impact of the compounds on pDNA was assessed using gel electrophoresis on 1% agarose gels stained with EB. Irradiation at 312 nm (UVB for 30 min), at 365 nm (UVA, for 120 min) or visible light (for 120 min) was also applied to further investigate the possibility of photocleavage activity of the compounds. […] The extent of pDNA damage from each compound was assessed by calculating the percentage of ss% and ds% using Equations (S4) and (S5).
S3.4 EB−displacement studies
The competition of the compounds with EB was investigated by fluorescence emission spectroscopy to examine whether the compounds can displace EB from its DNA−EB adduct. […] The solutions were excited at 540 nm and the emission was monitored from 550−700 nm with λmax = 592−594 nm and the effect of the addition of the compounds to the CT−DNA EB solution was recorded. […]
fluorescence emission bands at room temperature in solution or in the presence of CT DNA or EB under the same experimental conditions (λexcitation = 540 nm); therefore, the observed quenching of the EB−DNA solution may be attributed to the displacement of EB from its […]

SMILES	MIC [1] [µM]	MIC ([1]; summary over the four strains) [µg/mL]	total pDNA damage ([2]; dark, 150 min) [%]	pDNA damage ([2]; UVB irradiation 312 nm, 30 min) [%]
O=C(O)c1ccccc1Nc1ccc([N+](=O)[O-])cc1 [4′–NO2–fenH, 4′–nitrofenamic acid]	48 to 97	12.5 to 25	57	–
O=C([O-])c1ccccc1Nc1ccc([N+](=O)[O-])cc1.O=C([O-])c1ccccc1Nc1ccc([N+](=O)[O-])cc1.[Co+2].c1cnc2c(c1)ccc1cccnc12 [Complex 3, [Co(4′–NO2–fen)2(phen)]]	–	–	–	89
